Experimental data reported in article PMC7382241, “Genomic discovery of an evolutionarily programmed modality for small-molecule targeting of an intractable protein surface” (Proceedings of the National Academy of Sciences of the …, 2020).

Molecular target: T1, FKBP12 (Homo sapiens, UniProt P62942)
T1 construct: gene FKBP1A; AVI-tagged FKBP12, E. coli BL21(DE3)pLysS, immobilized on NTA sensor chip
Assay type: binding
Conditions: 25 °C; binary complex

T1 sequence (P62942 2-108): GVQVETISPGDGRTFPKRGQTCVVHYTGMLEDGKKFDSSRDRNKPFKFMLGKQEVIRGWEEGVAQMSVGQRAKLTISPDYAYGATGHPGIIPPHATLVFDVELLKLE

For `C=CC[C@@H]1/C=C(\C)C[C@H](C)C[C@H](OC)[C@H]2O[C@@](O)(C(=O)C(=O)N3CCCC[C@H]3C(=O)O[C@H](/C(C)=C/[C@@H]3CC[C@@H](O)[C@H](OC)C3)[C@H](C)[C@@H](O)CC1=O)[C@H](C)C[C@@H]2OC` [FK506], the KD was “KD measurements by SPR for WDB001, WDB002, WDB003, WDB011, rapamycin, and FK506”.
